# Read-outs that look alike come from different tables or passages of the source.
# What was measured:
# HRV-14 = assay: Antirhinoviral H1-HeLa cell culture assay (XTT), HRV-14; format: cell-based, human rhinovirus; details: Rhinovirus B, HRV14
# Procedure: (§1) Antirhinoviral H1-HeLa Cell Culture Assay
# (§2) In this cell protection assay, the ability of compounds to protect cells against HRV infection was measured by the XTT dye reduction method, which is described in Weislow et al., J. Natl. Cancer Inst. 1989, vol. 81, 577-586.
# (§3) H1-HeLa cells were infected with HRV-14 at a multiplicity of infection (m.o.i.) of 0.13 (virus particles/cell) or mock-infected with medium only. Infected or mock-infected cells were resuspended at 8×10^5 cells per mL, and incubated with appropriate concentrations of the compounds to be tested. Two days later, XTT/PMS was added to test plates and the amount of formazan produced was quantified spectrophotometrically at 450/650 nm. The EC50 value was calculated as the concentration of compound that increased the percentage of formazan production in compound-treated, virus-infected cells to 50% of that produced by compound-free, mock-infected cells. The 50% cytotoxic dose (CC50) was calculated as the concentration of compound that decreased the percentage of formazan produced in compound-treated, mock-infected cells to 50% of that produced by compound-free, mock-infected cells. The therapeutic index (TI) was calculated by dividing the CC50 value by the EC50 value.
# (§4) All strains of human rhinovirus (HRV) for use in this assay were purchased from American Type Culture Collection (ATCC), except for HRV serotype-14 (produced from the infectious cDNA clone constructed by Dr. Robert Rueckert, Institute for Molecular Virology, University of Wisconsin, Madison, Wis.). HRV stocks were propagated and viral assays were performed in H1-HeLa cells (ATCC). Cells were grown in minimal essential medium with 10% fetal bovine serum, available from Life Technologies (Gaithersburg, Md.).
# The compounds were tested against control compounds WIN 51711, WIN 52084, and WIN 54954 (obtained from Sterling-Winthrop Pharmaceuticals), Pirodavir (obtained from Janssen Pharmaceuticals), and Pleconaril (prepared according to the method described in Diana et al., J. Med. Chem 1995, vol. 38, 1355). Antiviral data obtained for the test compounds are shown in Tables 1 and 3, where all data are for HRV serotype-14 unless otherwise noted in parentheses.
# HRV serotype 2 = assay: Antirhinoviral H1-HeLa cell culture assay (XTT), HRV-2; format: cell-based; details: Human rhinovirus sp., H1-HeLa cells
# Procedure: as §1, §2
# as §3, with “value. […]” for “value.”
# HRV serotype 1A = assay: Antirhinoviral H1-HeLa cell culture assay (XTT), HRV-1A; format: cell-based, human rhinovirus; details: Human rhinovirus sp., H1-HeLa cells
# Procedure: as §1, §2, §3, §4
# (§5) The compounds were tested against control compounds WIN 51711, WIN 52084, and WIN 54954 (obtained from Sterling-Winthrop Pharmaceuticals), Pirodavir (obtained from Janssen Pharmaceuticals), and Pleconaril (prepared according to the method described in Diana et al., J. Med. Chem 1995, vol. 38, 1355). […]
# HRV serotype 39 = assay: Antirhinoviral H1-HeLa cell culture assay (XTT), HRV-39; format: cell-based; details: Human rhinovirus sp., H1-HeLa cells
# Procedure: as §1, §2
# as §3, with “value. […]” for “value.”
# HRV serotype 16 = assay: Antirhinoviral H1-HeLa cell culture assay (XTT), HRV-16; format: cell-based; details: Human rhinovirus sp., H1-HeLa cells
# Procedure: as §1, §2
# as §3, with “value. […]” for “value.”
# HRV serotype 89 = assay: Antirhinoviral H1-HeLa cell culture assay (XTT), HRV-89; format: cell-based; details: Human rhinovirus sp., H1-HeLa cells
# Procedure: as §1, §2
# as §3, with “value. […]” for “value.”
# HRV serotype 10 = assay: Antirhinoviral H1-HeLa cell culture assay (XTT), HRV-10; format: cell-based, human rhinovirus; details: Human rhinovirus sp., H1-HeLa cells
# Procedure: as §1, §2, §3, §4, §5
# HRV serotype 3 = assay: Antirhinoviral H1-HeLa cell culture assay (XTT), HRV-3; format: cell-based; details: Human rhinovirus sp., H1-HeLa cells
# Procedure: as §1, §2
# as §3, with “value. […]” for “value.”
# HRV serotype 9 = assay: Antirhinoviral H1-HeLa cell culture assay (XTT), HRV-9; format: cell-based; details: Human rhinovirus sp., H1-HeLa cells
# Procedure: as §1, §2
# as §3, with “value. […]” for “value.”
# HRV serotype 12 = assay: Antirhinoviral H1-HeLa cell culture assay (XTT), HRV-12; format: cell-based; details: Human rhinovirus sp., H1-HeLa cells
# Procedure: as §1, §2
# as §3, with “value. […]” for “value.”
# HRV serotype 13 = assay: Antirhinoviral H1-HeLa cell culture assay (XTT), HRV-13; format: cell-based; details: Human rhinovirus sp., H1-HeLa cells
# Procedure: as §1, §2
# as §3, with “value. […]” for “value.”
# HRV serotype 17 = assay: Antirhinoviral H1-HeLa cell culture assay (XTT), HRV-17; format: cell-based; details: Human rhinovirus sp., H1-HeLa cells
# Procedure: as §1, §2
# as §3, with “value. […]” for “value.”
# HRV serotype 25 = assay: Antirhinoviral H1-HeLa cell culture assay (XTT), HRV-25; format: cell-based; details: Human rhinovirus sp., H1-HeLa cells
# Procedure: as §1, §2
# as §3, with “value. […]” for “value.”
# HRV serotype 30 = assay: Antirhinoviral H1-HeLa cell culture assay (XTT), HRV-30; format: cell-based; details: Human rhinovirus sp., H1-HeLa cells
# Procedure: as §1, §2
# as §3, with “value. […]” for “value.”
# HRV serotype 38 = assay: Antirhinoviral H1-HeLa cell culture assay (XTT), HRV-38; format: cell-based; details: Human rhinovirus sp., H1-HeLa cells
# Procedure: as §1, §2
# as §3, with “value. […]” for “value.”
# HRV serotype 87 = assay: Antirhinoviral H1-HeLa cell culture assay (XTT), HRV-87; format: cell-based; details: Human rhinovirus sp., H1-HeLa cells
# Procedure: as §1, §2
# as §3, with “value. […]” for “value.”
# [1] = Cytotoxicity in mock-infected H1-HeLa cells (antirhinoviral assay, XTT); format: cell-based; details: human, 50% cytotoxic dose
# Procedure: as §3, §4
# [2] = system: Coxsackievirus type A-21 (CAV-21); assay: Anticoxsackieviral cell culture assay (XTT), CAV-21; format: cell-based; details: Coxsackievirus, H1-HeLa
# Procedure: (§6) Anticoxsackieviral Cell Culture Assay
# (§7) Coxsackievirus types A-21 (CAV-21) and B3 (CVB-3) were purchased from American Type Culture Collection (ATCC, Rockville, Md.). Virus stocks were propagated and antiviral assays were performed in H1-HeLa cells (ATCC). Cells were grown in minimal essential medium with 10% fetal bovine serum (Life Technologies, Gaithersburg, Md.).
# (§8) The ability of compounds to protect cells against either CAV-21 or CVB-3 infection was measured by the XTT dye reduction method. This method is described in Weislow et al., J. Natl. Cancer Inst. 1989, vol. 81, 577-586. H1-HeLa cells were infected with CAV-21 or CVB-3 at a multiplicity of infection (m.o.i.) of 0.025 or 0.075, respectively, or mock-infected with medium only. H1-HeLa cells were plated at 4×10^4 cells per well in a 96-well plate and incubated with appropriate concentrations of the test compound. One day (CVB-3) or two days (CAV-21) later, XTT/PMS was added to test plates and the amount of formazan produced was quantified spectrophotometrically at 450/650 nm. The EC50 was calculated as the concentration of compound that increased the formazan production in compound-treated, virus-infected cells to 50% of that produced by compound-free, uninfected cells. […] The therapeutic index (TI) was calculated by dividing the CC50 by the EC50. […]
# [3] = system: Coxsackievirus type B3 (CVB-3); assay: Anticoxsackieviral cell culture assay (XTT), CVB-3; format: cell-based; details: Coxsackievirus, H1-HeLa
# Procedure: as §6, §7, §8
# [4] = Cytotoxicity in uninfected H1-HeLa cells (anticoxsackieviral assay, XTT); format: cell-based; details: human; 50% cytotoxic dose, uninfected H1-HeLa cells (Table 4)
# Procedure: as §7
# The ability of compounds to protect cells against either CAV-21 or CVB-3 infection was measured by the XTT dye reduction method. This method is described in Weislow et al., J. Natl. Cancer Inst. 1989, vol. 81, 577-586. H1-HeLa cells were infected with CAV-21 or CVB-3 at a multiplicity of infection (m.o.i.) of 0.025 or 0.075, respectively, or mock-infected with medium only. H1-HeLa cells were plated at 4×10^4 cells per well in a 96-well plate and incubated with appropriate concentrations of the test compound. One day (CVB-3) or two days (CAV-21) later, XTT/PMS was added to test plates and the amount of formazan produced was quantified spectrophotometrically at 450/650 nm. The EC50 was calculated as the concentration of compound that increased the formazan production in compound-treated, virus-infected cells to 50% of that produced by compound-free, uninfected cells. The 50% cytotoxic dose (CC50) was calculated as the concentration of compound that decreased formazan production in compound-treated, uninfected cells to 50% of that produced in compound-free, uninfected cells. The therapeutic index (TI) was calculated by dividing the CC50 by the EC50.
# [5] = system: Echovirus type 11 (EV 11); assay: Anti-echoviral cell culture assay (XTT), EV 11; format: cell-based; details: Enterovirus B, MRC5
# Procedure: (§9) Anti-Echoviral and -Enteroviral Cell Culture Assays
# (§10) Echovirus type 11 (EV 11) and enterovirus type 70 (EV 70) were purchased from ATCC (Rockville, Md.). Virus stocks were propagated and antiviral assays were performed in MRC-5 cells (ATCC). Cells were grown in minimal essential medium with 10% fetal bovine serum (Life Technologies, Gaithersburg, Md.).
# (§11) The ability of compounds to protect cells against either EV 11 or EV 70 infection was measured by the XTT dye reduction method (Weislow et al., J. Natl. Cancer Inst. 1989, vol. 81, 577-586). MRC-5 cells were infected with EV 11 or EV 70 at an m.o.i. of 0.003 or 0.004, respectively, or mock-infected with medium only. Infected or uninfected cells were added at 1×10^4 cells per well and incubated with appropriate concentrations of compound. Four days later, XTT/PMS was added to test plates, and the amount of formazan produced was quantified spectrophotometrically at 450/650 nm. The EC50 was calculated as the concentration of compound that increased the formazan production in compound-treated, virus-infected cells to 50% of that produced by compound-free, uninfected cells. […] The therapeutic index (TI) was calculated by dividing the CC50 by the EC50. […]
# [6] = system: enterovirus type 70 (EV 70); assay: Anti-enteroviral cell culture assay (XTT), EV 70; format: cell-based; details: Enterovirus D, MRC5
# Procedure: as §9, §10, §11
# [7] = Cytotoxicity in uninfected MRC-5 cells (anti-echoviral/-enteroviral assay, XTT); format: cell-based; details: human, 50% cytotoxic dose
# Procedure: as §10
# The ability of compounds to protect cells against either EV 11 or EV 70 infection was measured by the XTT dye reduction method (Weislow et al., J. Natl. Cancer Inst. 1989, vol. 81, 577-586). MRC-5 cells were infected with EV 11 or EV 70 at an m.o.i. of 0.003 or 0.004, respectively, or mock-infected with medium only. Infected or uninfected cells were added at 1×10^4 cells per well and incubated with appropriate concentrations of compound. Four days later, XTT/PMS was added to test plates, and the amount of formazan produced was quantified spectrophotometrically at 450/650 nm. The EC50 was calculated as the concentration of compound that increased the formazan production in compound-treated, virus-infected cells to 50% of that produced by compound-free, uninfected cells. The 50% cytotoxic dose (CC50) was calculated as the concentration of compound that decreased formazan production in compound-treated, uninfected cells to 50% of that produced in compound-free, uninfected cells. The therapeutic index (TI) was calculated by dividing the CC50 by the EC50.
smiles,measurement,setting,value
"CCOC(=O)/C=C/[C@H](C[C@@H]1CCNC1=O)NC(=O)[C@H](Cc1ccc(F)cc1)NC(=O)[C@@H](NC(=O)c1cc(C)on1)C(C)C [(A-5), Ethyl-3-{(5′-Methylisoxazole-3′-carbonyl)-L-Val-L-(4-F-Phe)-L-((S)-Pyrrol-Ala)}-E-Propenoate]",EC50,"HRV-14; HRV serotype-14, H1-HeLa cells (Table 1), read-out: Cell Protection EC50",5 nM
same,EC50,"HRV-14; HRV serotype-14, H1-HeLa cells (Table 3), read-out: EC50",5 nM
same,EC50,HRV serotype 2,10 nM
same,EC50,HRV serotype 1A,30 nM
same,EC50,HRV serotype 39,20 nM
same,EC50,HRV serotype 16,20 nM
same,EC50,HRV serotype 89,20 nM
same,EC50,HRV serotype 10,50 nM
same,EC50,HRV serotype 3,50 nM
same,EC50,HRV serotype 9,40 nM
same,EC50,HRV serotype 12,60 nM
same,EC50,HRV serotype 13,20 nM
same,EC50,HRV serotype 17,20 nM
same,EC50,HRV serotype 25,180 nM
same,EC50,HRV serotype 30,60 nM
same,EC50,HRV serotype 38,130 nM
same,EC50,HRV serotype 87,210 nM
same,CC50 at 2 days,[1],> 10000 nM
same,EC50,[2],230 nM
same,EC50,[3],1000 nM
same,CC50,[4],> 10000 nM
same,EC50,[5],80 nM
same,EC50,[6],40 nM
same,CC50 at 4 days,[7],> 10000 nM
same,melting point,,219 to 220 °C

# From patent publication US6906198B1, “Antipicornaviral compounds, their preparation and use” (Agouron Pharmaceuticals, Inc., priority 1998, dated 2005)
